# Measured values published in article PMC6035176, “Chemo-manipulation of tumor blood vessels by a metal-based anticancer complex enhances antitumor therapy” (Scientific Reports, 2018).
# Target: T1, Poly(ADP-Ribose) Polymerase type 1 (PARP-1) (Homo sapiens, UniProt P09874)
# T1 construct: gene PARP1
# Test: in vitro colorimetric PARP-1 activity assay
# Type: biochemical
# T1 sequence (P09874 2-1014): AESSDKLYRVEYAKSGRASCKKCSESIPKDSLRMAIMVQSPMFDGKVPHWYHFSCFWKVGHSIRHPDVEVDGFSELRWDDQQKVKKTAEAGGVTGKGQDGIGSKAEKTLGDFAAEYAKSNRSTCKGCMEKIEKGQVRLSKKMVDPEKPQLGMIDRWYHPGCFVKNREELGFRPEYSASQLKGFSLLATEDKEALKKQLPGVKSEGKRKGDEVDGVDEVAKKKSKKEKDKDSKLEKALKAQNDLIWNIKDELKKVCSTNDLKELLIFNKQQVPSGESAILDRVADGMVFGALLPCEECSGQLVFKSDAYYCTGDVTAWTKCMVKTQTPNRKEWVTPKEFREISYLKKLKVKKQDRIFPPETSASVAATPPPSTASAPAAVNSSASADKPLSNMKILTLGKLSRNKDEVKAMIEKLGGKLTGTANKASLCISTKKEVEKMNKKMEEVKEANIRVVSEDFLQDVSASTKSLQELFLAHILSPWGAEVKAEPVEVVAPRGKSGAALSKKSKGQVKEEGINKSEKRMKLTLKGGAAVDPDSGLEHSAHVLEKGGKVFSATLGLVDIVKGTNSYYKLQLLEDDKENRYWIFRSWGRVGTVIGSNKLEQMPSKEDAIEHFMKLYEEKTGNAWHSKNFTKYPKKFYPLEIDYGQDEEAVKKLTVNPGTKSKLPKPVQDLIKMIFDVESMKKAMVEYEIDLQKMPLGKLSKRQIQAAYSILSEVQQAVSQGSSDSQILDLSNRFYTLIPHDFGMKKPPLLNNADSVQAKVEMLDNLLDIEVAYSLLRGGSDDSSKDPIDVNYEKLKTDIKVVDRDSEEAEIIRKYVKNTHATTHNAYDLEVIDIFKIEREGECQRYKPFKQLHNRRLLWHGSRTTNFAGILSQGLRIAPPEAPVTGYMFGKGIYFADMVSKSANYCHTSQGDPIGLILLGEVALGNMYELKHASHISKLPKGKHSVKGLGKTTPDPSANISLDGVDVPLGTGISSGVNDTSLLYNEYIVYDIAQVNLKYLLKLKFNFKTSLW
substance,measurement,value
RAPTA-T,IC50,400 µM
